biological target: HDM2 protein (Homo sapiens, UniProt Q00987); experiment: fluorescence polarization assay for HDM2 inhibitory activity; format: binding; conditions: read-out: FP (IC 50 uM)
Excerpt: The inventive compounds can readily be evaluated to determine activity at the HDM2 protein by known methods such as the fluorescence polarization screening assay that measures the inhibitory concentration that achieves 50% of maximal activity (FP IC50) and the dissociation constant for inhibitor binding (FP Ki). [Zhang et al., J. Analytical Biochemistry 331: 138-146 (2004)].

HDM2 protein, sequence (Q00987 whole entry): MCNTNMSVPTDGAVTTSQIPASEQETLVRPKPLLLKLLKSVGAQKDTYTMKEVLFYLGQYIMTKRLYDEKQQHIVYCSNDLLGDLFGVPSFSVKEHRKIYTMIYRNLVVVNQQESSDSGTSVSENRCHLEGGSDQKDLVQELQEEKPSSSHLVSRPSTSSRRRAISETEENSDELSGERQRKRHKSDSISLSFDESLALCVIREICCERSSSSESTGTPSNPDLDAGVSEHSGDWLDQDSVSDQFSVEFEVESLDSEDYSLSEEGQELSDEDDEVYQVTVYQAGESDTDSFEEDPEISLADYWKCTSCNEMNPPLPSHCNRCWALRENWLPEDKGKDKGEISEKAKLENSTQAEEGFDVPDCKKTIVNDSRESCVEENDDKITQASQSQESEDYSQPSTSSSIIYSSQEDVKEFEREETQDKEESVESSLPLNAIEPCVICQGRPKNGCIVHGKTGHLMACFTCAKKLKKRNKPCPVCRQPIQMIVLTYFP

CCC[C@H]1N(C(=O)c2cnccc2C(F)(F)F)CCC[C@@]1(Oc1csc(C(F)(F)F)c1)C(=O)N1CCC(c2ccccc2OCCCC(=O)NS(=O)(=O)C2CC2)CC1 [Compound A2] and CCC[C@H]1N(C(=O)c2cnccc2C(F)(F)F)CCC[C@@]1(Oc1csc(C(F)(F)F)c1)C(=O)N1CCC(c2ccccc2CCc2nnn[nH]2)CC1 [Compound A133, (4-(2-(2-(1H-tetrazol-5-yl)ethyl)phenyl)piperidin-1-yl)((2R,3S)-2-propyl-1-(4-(trifluoromethyl)nicotinoyl)-3-(5-(trifluoromethyl)thiophen-3-yloxy)piperidin-3-yl)methanone] are within 1.5-fold of each other in IC50: 0.009 µM for the first, 0.011 µM for the second.

CCC[C@H]1N(C(=O)c2cnccc2C(F)(F)F)CCC[C@@]1(Oc1csc(C(F)(F)F)c1)C(=O)N1CCC(C#N)(c2ccccc2OCCCCC(=O)O)CC1 [Compound A4] and CCC[C@H]1N(C(=O)c2cnccc2C(F)(F)F)CCC[C@@]1(Oc1ccc(C(F)(F)F)cc1)C(=O)N1CCC(C#N)(c2ccccc2CCC(=O)O)CC1 [Compound A83] are within 1.5-fold of each other in IC50: 0.014 µM for the first, 0.013 µM for the second.

First: CCC[C@H]1N(C(=O)c2cnccc2C(F)(F)F)CCC[C@@]1(Oc1csc(C(F)(F)F)c1)C(=O)N1CCC(c2nn[nH]n2)(c2ccccc2OC)CC1 [Compound A54]
Second: CCC[C@H]1N(C(=O)c2ncccc2C(F)(F)F)CCC[C@@]1(Oc1csc(C(F)(F)F)c1)C(=O)N1CCC(O)(c2ccccc2OCCCP(=O)(O)O)CC1 [Compound A89, 3-(2-(4-hydroxy-1-((2R,3S)-2-propyl-1-(3-(trifluoromethyl)picolinoyl)-3-(5-(trifluoromethyl)thiophen-3-yloxy)piperidine-3-carbonyl)piperidin-4-yl)phenoxy)propylphosphonic acid]
The IC50 of the first is 1.7-fold higher: 0.019 µM for the first, 0.011 µM for the second. The second is the more potent here.

With CCC[C@H]1N(C(=O)c2ncccc2C(F)(F)F)CCC[C@@]1(Oc1csc(C(F)(F)F)c1)C(=O)N1CCC(O)(c2ccccc2O[C@@H]2CC[C@](C)(C(=O)NS(C)(=O)=O)C2)CC1 [Compound A145] the IC50 was 0.008 µM.

From US8859776B2, “Substituted piperidines that increase p53 activity and the uses thereof” (Merck Sharp & Dohme Corp., priority 2009, dated 2014)
